Test results published in EP4621028A1, “FLUORESCENCE RECOVERY IN NANOGRAPHENE” (Max-Planck-Gesellschaft zur Förderung der Wissenschaften …, priority 2024, dated 2025).

How the values were obtained:
[1] = Absorption and fluorescence in toluene; assay type: physicochemical; conditions: for molar extinction coefficient ε: at maximum absorption wavelength
Solubility in water = assay type: physicochemical; conditions: room temperature
Experimental: In accordance with the present invention, the solubility and particularly the solubility of the compound having the general formula (1) or the general formula (2) in water at 23°C is measured as follows: 1 mg sample is weighed into an Erlenmeyer flask and is then mixed homogeneously with 4 ml of water with a spatula at 23°C. The remaining substance on the spatula is stripped off with a magnetic stirrer bar, which is then added to the Erlenmeyer flask. While stirring with a magnetic stirrer, water is added dropwise with a burette until the solution in the Erlenmeyer flask becomes clear at 23°C. After that, the solubility of compound in water is calculated by calculating the ratio of weighed compound divided by the volume of added water and then by recalculating this ratio to 1 I of water.

Q: For `CCCCCCCCCCCCOc1cc(-c2c3cccc4c5ccc6ccc7c(-c8cc(OCCCCCCCCCCCC)c(OCCCCCCCCCCCC)c(OCCCCCCCCCCCC)c8)c8cccc9c%10ccc%11ccc2c2c%11c%10c%10c(c89)c7c6c5c%10c2c34)cc(OCCCCCCCCCCCC)c1OCCCCCCCCCCCC` [Example 7, 6,14-bis[3,4,5-tris(dodecoxyl)phenyl]dibenzo[hi,st]ovalene], which “molar extinction coefficient ε” value ([1]; in toluene (10^-5 mol/L)) is on record?
A: 385000 M⁻¹ cm⁻¹

Q: With “6,14-didodecyldibenzo[hi,st]ovalene [Example 2]” as the compound, how does the fluorescence quantum yield ([1]; in toluene (10^-5 mol/L)) read?
A: 0.85

Q: And the maximum absorption wavelength ([1]; in toluene (10^-5 mol/L))?
A: 611 nm

Q: And the “molar extinction coefficient ε” value ([1]; in toluene (10^-5 mol/L))?
A: 203000 M⁻¹ cm⁻¹

Q: For `Cc1cccc(C)c1-c1c2cccc3c4ccc5ccc6c(-c7c(C)cccc7C)c7cccc8c9ccc%10ccc1c1c%10c9c9c(c78)c6c5c4c9c1c23` [Example 3, 6, 14-bis(dimethylphenyl)dibenzo[hi,st]ovalene], which “absorption spectrum and emission spectrum” value [1] is on record?
A: narrow absorption spectrum as well as a narrow emission spectrum

Q: What about the “molar extinction coefficient ε” value ([1]; in toluene (10^-5 mol/L)) of the same compound?
A: 283000 M⁻¹ cm⁻¹

Q: Which “absorption spectrum and emission spectrum” value [1] does the source give for “N-hexyl fumaric acid imide group substituted 6,14-dimesityldibenzo[hi,st]ovalene [Example 9]” here?
A: narrow absorption spectrum as well as a narrow emission spectrum

Q: For `c1ccc(-c2c3cccc4c5ccc6ccc7c(-c8ccccc8)c8cccc9c%10ccc%11ccc2c2c%11c%10c%10c(c89)c7c6c5c%10c2c34)cc1` [Example 8, 6,14-diphenyldibenzo[hi,st]ovalene], which “absorption spectrum and emission spectrum” value [1] is on record?
A: narrow absorption spectrum as well as a narrow emission spectrum

Q: With `COCCOCCOCCOCCOc1cc(-c2ccc3cc4cc5c(-c6c(C)cc(C)cc6C)cc6cc7c(-c8cc(OCCOCCOCCOCCOC)c(OCCOCCOCCOCCOC)c(OCCOCCOCCOCCOC)c8)ccc8cc9cc%10c(-c%11c(C)cc(C)cc%11C)cc%11cc2c3c2c%11c%10c3c9c(c87)c6c5c3c42)cc(OCCOCCOCCOCCOC)c1OCCOCCOCCOCCOC` [Example 5, 3,11-bis(3,4,5-tris(2,5,8,11-tetraoxatridecan-13-yloxy)phenyl)-6,14-dimesityldibenzo[hi, st]ovalene] as the compound, how does the “solubility of this compound in water” value (Solubility in water) read?
A: 100 µg/mL

Q: What does the source list for `CC(C)[Si](C#Cc1c2cccc3c4ccc5ccc6c(C#C[Si](C(C)C)(C(C)C)C(C)C)c7cccc8c9ccc%10ccc1c1c%10c9c9c(c78)c6c5c4c9c1c23)(C(C)C)C(C)C` [Example 6, 6, 14-di(triisopropylsilylethynyl) dibenzo[hi,st]ovalene]?
A: absorption spectrum and emission spectrum [1]: narrow absorption spectrum as well as a narrow emission spectrum; molar extinction coefficient ε ([1]; in toluene (10^-5 mol/L)): 61511 M⁻¹ cm⁻¹
